Results taken from publication PMC2692627 (Molecular microbiology, 2009).
Each block holds one compound with its values, some of them ahead of it.

Key:
[1] = target: recombinant Leishmania DHCH1 (Leishmania major, UniProt Q4Q9F9); assay: Inhibition of dehydrogenase; format: biochemical; conditions: for Inhibition of L. major DHCH1: tested at 50 μM, data not shown
[2] = system: L. major FV1 promastigotes WT; assay: Promastigote growth inhibition, WT line; format: cell-based; conditions: Leishmania major, read-out: EC50 growth
[3] = system: L. major FV1 promastigotes dhch1^−/pXNG4-DHCH1; assay: microbe, parasite or virus in culture; format: cell-based, Leishmania major; conditions: for Resistance of DHCH1 or FTL overexpressors: DHCH1 or FTL overexpressors vs WT; for EC50: Leishmania major, read-out: EC50 growth
[4] = system: L. major FV1 promastigotes dhch1^−/pXNG4-FTL; assay: Promastigote growth inhibition, dhch1−/pXNG4-FTL line; format: cell-based; conditions: Leishmania major, read-out: EC50 growth
[5] = target: T1, recombinant Leishmania major DHCH1 (Leishmania major, UniProt Q4Q9F9); assay: Kinetic constants of the dehydrogenase reaction of recombinant L. major DHCH1; format: biochemical; conditions: limit of detection 0.3 μmol min^−1 mg^−1; also with 5 mM (K+)PO4 and 5 mM MgCl2
T1 sequence (Q4Q9F9 1-298): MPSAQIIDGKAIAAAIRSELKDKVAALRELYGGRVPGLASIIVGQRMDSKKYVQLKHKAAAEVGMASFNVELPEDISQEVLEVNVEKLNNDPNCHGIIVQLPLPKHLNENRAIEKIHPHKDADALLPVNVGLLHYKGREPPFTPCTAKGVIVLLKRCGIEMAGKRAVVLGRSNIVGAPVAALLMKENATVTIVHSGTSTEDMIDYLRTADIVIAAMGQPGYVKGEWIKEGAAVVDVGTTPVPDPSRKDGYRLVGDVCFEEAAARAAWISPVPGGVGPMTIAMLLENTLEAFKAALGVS

Leishmania DHFR-TS = Leishmania DHFR-TS (Leishmania major, UniProt P07382); assay: DHFR activity of the bifunctional L. major DHFR-TS; format: biochemical; conditions: 100 μM; data not shown
[6] = system: L. major FV1 promastigotes WT/pXNG4-DHCH1; assay: Promastigote growth inhibition, WT/pXNG4-DHCH1 line; format: cell-based; conditions: Leishmania major, read-out: EC50 growth
[7] = system: L. major FV1 promastigotes WT/pXNG4-FTL; assay: Promastigote growth inhibition, WT/pXNG4-FTL line; format: cell-based; conditions: Leishmania major, read-out: EC50 growth
host cell (macrophages) = assay: Host cell toxicity in the amastigote/macrophage test; format: cell-based; conditions: macrophage host cells; preliminary studies, unpublished data
human DHFR = conditions: read-out: Ki, human DHFR; ref Temple et al., 1982; cited from earlier work
FTL = conditions: 100 μM; ref Vickers et al., 2008; cited from earlier work

Chain of Leishmania DHFR-TS (P07382 whole entry): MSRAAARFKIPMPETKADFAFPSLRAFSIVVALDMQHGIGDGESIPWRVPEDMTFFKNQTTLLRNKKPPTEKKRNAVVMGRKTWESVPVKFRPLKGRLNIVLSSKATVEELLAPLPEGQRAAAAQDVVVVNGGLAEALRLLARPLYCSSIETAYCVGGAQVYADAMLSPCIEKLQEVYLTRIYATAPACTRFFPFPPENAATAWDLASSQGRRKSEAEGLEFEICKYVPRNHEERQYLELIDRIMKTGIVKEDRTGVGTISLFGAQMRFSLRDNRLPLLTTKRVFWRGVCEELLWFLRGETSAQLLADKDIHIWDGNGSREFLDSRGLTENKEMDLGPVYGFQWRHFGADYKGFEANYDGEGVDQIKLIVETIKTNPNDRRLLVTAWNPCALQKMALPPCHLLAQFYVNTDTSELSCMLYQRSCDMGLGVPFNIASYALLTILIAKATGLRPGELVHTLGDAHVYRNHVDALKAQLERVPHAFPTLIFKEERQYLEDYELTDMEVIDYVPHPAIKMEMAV

SMILES: CN(Cc1cnc2nc(N)nc(N)c2n1)c1ccc(C(=O)N[C@@H](CCC(=O)O)C(=O)O)cc1 [Methotrexate]
Inhibition of L. major DHCH1 [1]: not inhibited | EC50 [2]: 36 ± 1 nM | Resistance of DHCH1 or FTL overexpressors [3]: did not show resistance | EC50 [3]: 41 ± 2 nM | EC50 [4]: 40 ± 2 nM

SMILES: NC(=O)c1ccc[n+]([C@@H]2O[C@H](COP(=O)([O-])OP(=O)(O)OC[C@H]3O[C@@H](n4cnc5c(N)ncnc54)[C@H](O)[C@@H]3O)[C@@H](O)[C@H]2O)c1 [NAD^+]
Dehydrogenase activity with the coenzyme [5]: no activity detected

Inhibition of L. major DHCH1 [1]: not inhibited
SMILES: CC(C)c1nc2nc(N)nc(N)c2nc1C(C)C [Compound 25, 2,4-Diamino-6,7-diisopropylpteridine]

SMILES: Nc1nc(N)c(CCCc2ccccc2)c(Cc2ccccc2)n1 [Compound 70, 2,4-diamino-6-benzyl-5-(3-phenylpropyl)-pyrimidine]
Inhibition of L. major DHCH1 [1]: not inhibited | EC50 [2]: 440 ± 50 nM | Resistance of DHCH1 or FTL overexpressors [3]: did not show resistance | EC50 [3]: 400 ± 50 nM | EC50 [4]: 420 ± 40 nM

SMILES: Nc1nc(N)c2cc(Oc3ccc(Cl)c(Cl)c3)ccc2n1 [Compound 34, 2,4-diamino-6-(3,4-dichlorophenoxy)-quinazoline]
Inhibition of L. major DHCH1 [1]: not inhibited | EC50 [2]: 680 ± 90 nM | Resistance of DHCH1 or FTL overexpressors [3]: did not show resistance | EC50 [3]: 760 ± 80 nM | EC50 [4]: 540 ± 60 nM

SMILES: Nc1nc(O)c2c(n1)NC[C@@H]1CN(c3ccc(C(=O)N[C@@H](CCC(=O)O)C(=O)O)cc3)C(=O)N21 [5,10-CO-THF, (2S)-2-[[4-[(6aR)-3-amino-1,9-dioxo-5,6,6a,7-tetrahydro-4H-imidazo[3,4-f]pteridin-8-yl]benzoyl]amino]pentanedioic acid]
Ki [1]: 105 nM | Inhibition of the activity of Leishmania DHFR-TS (Leishmania DHFR-TS): did not inhibit | EC50 [2]: 1100 ± 40 nM | EC50 [3]: 4500 ± 500 nM | EC50 [4]: 3300 ± 300 nM | EC50 [6]: 5100 ± 800 nM | EC50 [7]: 3700 ± 500 nM | Concentration above which host cell toxicity was seen (host cell (macrophages)): above 10 μM | Ki (human DHFR): > 100000 nM | Inhibition of the activity of FTL (FTL): did not inhibit
